According to US20140081017A1, “Histone Deacetylase Inhibitors for Enhancing Activity of Antifungal Agents” (METHYLGENE INC., priority 2012, published 2014):
In brackets after ≈: the same amount, converted by molar mass. Like-named read-outs stand apart in the source and are kept apart here.

Experiments:
[1] = system: Candida glabrata; test: Minimal Inhibitory Concentration (MIC) assay, broth microdilution per CLSI; format: cell-based; settings: Nakaseomyces glabratus, read-out: Minimum Inhibitory Concentrations against Yeast Isolates, Candida glabrata;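 also: two read times 24 hr and 48 hr of incubation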
Procedure, shortened: (§1)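 CLSI broth microdilution in RPMI/0.165 M MOPS pH 7.0; 2-fold DMSO dilution series; inoculum 0.5 McFarland diluted 1:100; 35° C, ~24-48 hr; MIC = lowest conc. with no visible growth, read from plate bottom.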

[2] = system: Candida albicans; test: as above; format: cell-based; settings: Candida albicans, read-out: Minimum Inhibitory Concentrations against Yeast Isolates, Candida albicans;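 also: two read times 24 hr and 48 hr of incubation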
Procedure, shortened: as §1

[3] = system: Candida parapsilosis; test: as above; format: cell-based; settings: Lodderomyces parapsilosis, read-out: Minimum Inhibitory Concentrations against Yeast Isolates, Candida parapsilosis;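 also: two read times 24 hr and 48 hr of incubation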
Procedure, shortened: as §1

[4] = system: C. glabrata; test: Checkerboard FIC assay in combination with fluconazole (MIC alone and in combination, FICI); format: cell-based, Candida glabrata; settings: for FICI of combination resulting in fluconazole MIC of: 2 ug/mL / FICI of combination resulting in fluconazole MIC of: 4 ug/mL / FICI of combination resulting in fluconazole MIC of: 8 ug/mL: FICI calculated using a fluconazole MIC of 16 μg/mL; for FICI of combination resulting in fluconazole MIC of: 2 ug/mL (value in parenthesis) / FICI of combination resulting in fluconazole MIC of: 4 ug/mL (value in parenthesis) / FICI of combination resulting in fluconazole MIC of: 8 ug/mL (value in parenthesis): FICI using a fluconazole MIC of 128 μg/mL; for MIC: Nakaseomyces glabratus; for Multiple of compound MIC to synergize fluconazole MIC to 2 ug/mL / Multiple of compound MIC to synergize fluconazole MIC to 4 ug/mL / Multiple of compound MIC to synergize fluconazole MIC to 8 ug/mL: concentration in combination as multiple of the compound's MIC alone; for Multiple of compound MIC to synergize fluconazole MIC to 2 ug/mL: fluconazole MIC 2 ug/mL; for Multiple of compound MIC to synergize fluconazole MIC to 4 ug/mL: fluconazole MIC 4 ug/mL; for Multiple of compound MIC to synergize fluconazole MIC to 8 ug/mL: fluconazole MIC 8 ug/mL; for Concentration of Methylgene compound to synergize fluconazole MIC to 2 ug/mL / Concentration of Methylgene compound to synergize fluconazole MIC to 4 ug/mL / Concentration of Methylgene compound to synergize fluconazole MIC to 8 ug/mL: in combination with fluconazole; for Concentration of Methylgene compound to synergize fluconazole MIC to 2 ug/mL: fluconazole MIC lowered to 2 ug/mL; for Concentration of Methylgene compound to synergize fluconazole MIC to 4 ug/mL: fluconazole MIC lowered to 4 ug/mL; for Concentration of Methylgene compound to synergize fluconazole MIC to 8 ug/mL: fluconazole MIC lowered to 8 ug/mL
Procedure, shortened: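 A fluconazole synergy checkerboard was run against C. glabrata in MOPS-buffered RPMI (pH 7.0) for about 48 h at 35 °C. Each agent was diluted 2-fold, with one row and one column holding each agent alone for MIC determination. FICI was calculated from these MICs, using a 0.5 McFarland inoculum diluted 1:100 per CLSI.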

[5] = 24 hr reading (first value of cell 24 hr/48 hr)
[6] = 48 hr reading (second value of cell 24 hr/48 hr)
[7] = MIC of the example compound alone against C. glabrata in the checkerboard assay, approximately 48 hr, read-out: Methylgene MIC
[8] = test compound alone, C. glabrata, approx. 48 hr at 35° C., read-out: Compound MIC

Row | SMILES | MIC [1, 5] | MIC [1, 6] | MIC [2, 5] | MIC [2, 6] | MIC [3, 5] | MIC [3, 6] | FICI of combination resulting in fluconazole MIC of: 2 ug/mL ([4]; C. glabrata) | FICI of combination resulting in fluconazole MIC of: 4 ug/mL ([4]; C. glabrata) | FICI of combination resulting in fluconazole MIC of: 8 ug/mL ([4]; C. glabrata) | FICI of combination resulting in fluconazole MIC of: 2 ug/mL (value in parenthesis) ([4]; C. glabrata) | FICI of combination resulting in fluconazole MIC of: 4 ug/mL (value in parenthesis) ([4]; C. glabrata) | FICI of combination resulting in fluconazole MIC of: 8 ug/mL (value in parenthesis) ([4]; C. glabrata) | MIC [4, 7] | MIC [4, 8] | Multiple of compound MIC to synergize fluconazole MIC to 2 ug/mL [4] | Multiple of compound MIC to synergize fluconazole MIC to 4 ug/mL [4] | Multiple of compound MIC to synergize fluconazole MIC to 8 ug/mL [4] | Concentration of Methylgene compound to synergize fluconazole MIC to 2 ug/mL ([4]; C. glabrata) | Concentration of Methylgene compound to synergize fluconazole MIC to 4 ug/mL ([4]; C. glabrata) | Concentration of Methylgene compound to synergize fluconazole MIC to 8 ug/mL ([4]; C. glabrata)
1 | COCCOCCOCCNC(=O)c1ccc(CCCCc2ccc(CC(=O)NO)cc2)cc1 [Example 11, 4-(4-(4-(2-(hydroxyamino)-2-oxoethyl)phenyl)butyl)-N-(2-(2-(2-methoxyethoxy)ethoxy)ethyl)benzamide] | > 64 µg/mL | > 64 µg/mL | > 64 µg/mL | > 64 µg/mL | > 64 µg/mL | > 64 µg/mL | 0.375 | 0.375 | 0.625 | 0.266 | 0.156 | 0.188 | 8 µg/mL | 8 µg/mL | (¼x) | (⅛x) | (⅛x) | 2 µg/mL | 1 µg/mL | 1 µg/mL
2 | COCCOCCOCCNS(=O)(=O)c1ccc(CCCCc2ccc(CC(=O)NO)cc2)cc1 [Example 12, N-hydroxy-2-(4-(4-(4-(N-(2-(2-(2-methoxyethoxy)ethoxy)ethyl)sulfamoyl)phenyl)butyl)phenyl)acetamide] | 4 µg/mL (≈ 7.86 µM) | 16 µg/mL (≈ 31.5 µM) | > 64 µg/mL | > 64 µg/mL | > 64 µg/mL | > 64 µg/mL | 0.313 | 0.250 | 0.375 | 0.266 | 0.156 | 0.188 | 16 µg/mL | 16 µg/mL | (¼x) | (⅛x) | (⅛x) | 4 µg/mL | 2 µg/mL | 2 µg/mL
3 | COc1ccc(CCCCc2ccc(CC(=O)NO)cc2)cc1OC [Example 13, 2-(4-(4-(3,4-dimethoxyphenyl)butyl)phenyl)-N-hydroxyacetamide] | 2 µg/mL (≈ 5.82 µM) | 4 µg/mL (≈ 11.6 µM) | 8 µg/mL (≈ 23.3 µM) | 16 µg/mL (≈ 46.6 µM) | 16 µg/mL (≈ 46.6 µM) | > 16 µg/mL | 0.313 | 0.375 | 0.375 | 0.266 | 0.281 | 0.188 | 4 µg/mL | 4 µg/mL | (¼x) | (¼x) | (⅛x) | 1 µg/mL | 1 µg/mL | 0.5 µg/mL
4 | O=C(Cc1ccc(CCCCc2ccc(C(=O)O)cc2)cc1)NO [Example 14, 4-(4-(4-(2-(hydroxyamino)-2-oxoethyl)phenyl)butyl)benzoic acid] | 32 µg/mL (≈ 97.7 µM) | 64 µg/mL (≈ 195 µM) | 16 µg/mL (≈ 48.9 µM) | > 64 µg/mL | 32 µg/mL (≈ 97.7 µM) | > 64 µg/mL | > 0.563 | > 0.625 | > 0.750 | > 0.516 | > 0.531 | > 0.563 | > 16 µg/mL | > 16 µg/mL | – | – | – | 16 µg/mL | 16 µg/mL | 16 µg/mL
5 | O=C(Cc1ccc(CCCCc2ccc(O)cc2)cc1)NO [Example 15, N-hydroxy-2-(4-(4-(4-hydroxyphenyl)butyl)phenyl)acetamide] | > 8 µg/mL | > 8 µg/mL | > 16 µg/mL | > 16 µg/mL | > 16 µg/mL | > 16 µg/mL | 0.375 | 0.500 | 0.625 | 0.266 | 0.281 | 0.188 | 8 µg/mL | 8 µg/mL | (¼x) | (¼x) | (⅛x) | 2 µg/mL | 2 µg/mL | 1 µg/mL
6 | O=C(Cc1ccc(CCCCc2ccc(OCCCN3CCOCC3)cc2)cc1)NO [Example 16, N-hydroxy-2-(4-(4-(4-(3-morpholinopropoxy)phenyl)butyl)phenyl)acetamide] | > 32 µg/mL | > 32 µg/mL | > 16 µg/mL | > 16 µg/mL | > 16 µg/mL | > 16 µg/mL | 0.375 | 0.500 | 0.625 | 0.266 | 0.281 | 0.188 | 2 µg/mL | 2 µg/mL | (¼x) | (¼x) | (⅛x) | 0.5 µg/mL | 0.5 µg/mL | 0.25 µg/mL
7 | O=C(Cc1ccc(CCCCc2ccc(O)c(O)c2)cc1)NO [Example 19, 2-(4-(4-(3,4-dihydroxyphenyl)butyl)phenyl)-N-hydroxyacetamide] | 1 µg/mL (≈ 3.17 µM) | 2 µg/mL (≈ 6.34 µM) | 16 µg/mL (≈ 50.7 µM) | 32 µg/mL (≈ 101 µM) | 32 µg/mL (≈ 101 µM) | 32 µg/mL (≈ 101 µM) | 0.313 | 0.375 | 0.500 | 0.266 | 0.281 | 0.313 | 2 µg/mL | 2 µg/mL | (¼x) | (¼x) | (¼x) | 0.5 µg/mL | 0.5 µg/mL | 0.5 µg/mL
